Measurements as given in patent US7419969B2 (Bristol-Myers Squibb Company, priority 2004, dated 2008).

How the values were obtained:
HIV-integrase = target: T1, HIV-integrase (Human immunodeficiency virus type 1 group M subtype B, UniProt P04585); test: in-vitro activity against HIV-integrase (HIV Integrase Inhibition, SPA bead assay); type: biochemical; conditions: recombinant integrase, activity class
T1 construct: Recombinant integrase (0.26 ng) was incubated with the beads
Outline: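 Recombinant integrase (0.26 ng) pre-bound for 90 min at 37 °C to biotinylated substrate DNA on streptavidin SPA beads, then washed. Inhibitors added with 33P-labelled target DNA; reaction stopped with 10 mM EDTA. Scintillation CPM taken as integration signal.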

Row | SMILES | melting point | IC50 (HIV-integrase; Table 1a) [nM] | IC50 (HIV-integrase; Table 1) [nM]
1 | O=C(NCc1ccc(F)cc1-n1ccnn1)c1nc2n(c(=O)c1O)CCCOC21CCOCC1 [Example 122, Spiro[4H-pyran-4,10′(4′H)-[6H]pyrimido[2,1-c][1,4]oxazepine]-2′-carboxamide, N-[[4-fluoro-2-(1H-1,2,3-triazol-1-yl)phenyl]methyl]-2,3,5,6,7′,8′-hexahydro-3′-hydroxy-4′-oxo-] | 239 °C (dec.) | 1 to 10 | –
2 | Cc1ncn(-c2cc(F)ccc2CNC(=O)c2nc3n(c(=O)c2O)CCCOC32CCOCC2)n1 [Example 119, Spiro[4H-pyran-4,10′(4′H)-[6H]pyrimido[2,1-c][1,4]oxazepine]-2′-carboxamide, N-[[4-fluoro-2-(3-methyl-1H-1,2,4-triazol-1-yl)phenyl]methyl]-2,3,5,6,7′,8′-hexahydro-3′-hydroxy-4′-oxo-] | 240 °C (dec.) | 1 to 10 | –
3 | CNC(=O)c1cc(F)ccc1CNC(=O)c1nc2n(c(=O)c1O)CCCOC21CCOCC1 [Example 115, Spiro[4H-pyran-4,10′(4′H)-[6H]pyrimido[2,1-c][1,4]oxazepine]-2′-carboxamide, N-[[4-fluoro-2-[(methylamino)carbonyl]phenyl]methyl]-2,3,5,6,7′,8′-hexahydro-3′-hydroxy-4′-oxo-] | 211 °C (dec.) | 1 to 10 | –
4 | O=C(NCc1ccc(F)cc1-n1cncn1)c1nc2n(c(=O)c1O)CCCOC21CCOCC1 [Example 118, Spiro[4H-pyran-4,10′(4′H)-[6H]pyrimido[2,1-c][1,4]oxazepine]-2′-carboxamide, N-[[4-fluoro-2-(1H-1,2,4-triazol-1-yl)phenyl]methyl]-2,3,5,6,7′,8′-hexahydro-3′-hydroxy-4′-oxo-] | 247 °C (dec.) | 1 to 10 | –
5 | Cc1ncnn1-c1cc(F)ccc1CNC(=O)c1nc2n(c(=O)c1O)CCCOC21CCOCC1 [Example 120, Spiro[4H-pyran-4,10′(4′H)-[6H]pyrimido[2,1-c][1,4]oxazepine]-2′-carboxamide, N-[[4-fluoro-2-(5-methyl-1H-1,2,4-triazol-1-yl)phenyl]methyl]-2,3,5,6,7′,8′-hexahydro-3′-hydroxy-4′-oxo-] | 204 °C | 10 to 100 | –
6 | CS(=O)(=O)c1cc(F)ccc1CNC(=O)c1nc2n(c(=O)c1O)CCCOC21CCOCC1 [Example 116, Spiro[4H-pyran-4,10′(4′H)-[6H]pyrimido[2,1-c][1,4]oxazepine]-2′-carboxamide, N-[[4-fluoro-2-(methylsulfonyl)phenyl]methyl]-2,3,5,6,7′,8′-hexahydro-3′-hydroxy-4′-oxo-] | 257 °C (dec.) | 10 to 100 | –
7 | COP(=O)(OC)c1cc(F)ccc1CNC(=O)c1nc2n(c(=O)c1O)CCCOC21CCOCC1 [Example 117, Phosphonic acid, [5-fluoro-2-[[[(2,3,5,6,7′,8′-hexahydro-3′-hydroxy-4′-oxospiro[4H-pyran-4,10′(4′H) -[6H]pyrimido[2,1-c][1,4]oxazepin]-2′-yl)carbonyl]amino]methyl]phenyl]-, dimethyl ester] | 234 °C (dec.) | 10 to 100 | –
8 | O=C(NCc1ccc(F)cc1)c1nc2n(c(=O)c1O)CCC21CCCC1 [Example 84, N-[(4-fluorophenyl)methyl]-6′,7′-dihydro-3′-hydroxy-4′-oxo-spiro[cyclopentane-1,8′(4′H)-pyrrole[1,2-α]pyrimidine]-2′-carboxamide] | – | – | 1 to 10
9 | CS(=O)(=O)c1cc(F)ccc1CNC(=O)c1nc2n(c(=O)c1O)CCCC21CCC1 [Example 81, N-[[4-fluoro-2-(methylsulfonyl)phenyl]methyl]-7′,8′-dihydro-3′-hydroxy-4′-oxo-spiro[cyclobutane-1,9′(6′H)-[4H]pyrido[1,2-α]pyrimidine]-2′-carboxamide] | – | – | 1 to 10
10 | O=C(NCCc1ccc(F)cc1)c1nc2n(c(=O)c1O)CCOC21CCCC1 [Example 30, N-[2-(4-fluorophenyl)ethyl]-6′,7′-dihydro-3′-hydroxy-4′-oxo-spiro[cyclopentane-1,9′(4H)-pyrimido[2,1-c][1,4]oxazine]-2′-carboxamide] | – | – | 10 to 100
11 | O=C(NCc1ccc(F)cc1)c1nc2n(c(=O)c1O)CCCC21CCOCC1 [Example 13, N-[(4-fluorophenyl)methyl]-2,3,5,6,7′,8′-hexahydro-3′-hydroxy-4′-oxo-spiro[4H-pyran-4,9′(6′H)-[4H]pyrido[1,2-a]pyrimidine]-2′-carboxamide] | – | – | 1 to 10
12 | Cc1cc(CNC(=O)c2nc3n(c(=O)c2O)CCCC32CCCC2)ccc1F [Example 2, N-[(4-fluoro-3-methylphenyl)methyl]-7′,8′-dihydro-3′-hydroxy-4′-oxo-spiro[cyclopentane-1,9′(6′H)-[4H]pyrido[1,2-a]pyrimidine]-2′-carboxamide] | – | – | 1 to 10
13 | Cc1cc(CNC(=O)c2nc3n(c(=O)c2O)CCOC32CCCC2)ccc1F [Example 16, N-[(4-fluoro-3-methylphenyl)methyl]-6′,7′-dihydro-3′-hydroxy-4′-oxo-spiro[cyclopentane-1,9′(4′H)-pyrimido[2,1-c][1,4]oxazine]-2′-carboxamide] | – | – | 1 to 10
14 | O=C(NCc1ccc(F)cc1)c1nc2n(c(=O)c1O)CCOC21CCC1 [Example 52, N-[(4-fluorophenyl)methyl]-6′,7′-dihydro-3′-hydroxy-4′-oxo-spiro[cyclobutane-1,9′(4′H)-pyrimido[2,1-c][1,4]oxazine]-2′-carboxamide] | – | – | 1 to 10
15 | Cc1ncnn1-c1cc(F)ccc1CNC(=O)c1nc2n(c(=O)c1O)CCOC21CCC1 [Example 57, N-[[4-fluoro-2-(5-methyl-1H-1,2,4-triazol-1-yl)phenyl]methyl]-6′,7′-dihydro-3′-hydroxy-4′-oxo-spiro[cyclobutane-1,9′(4′H)-pyrimido[2,1-c][1,4]oxazine]-2′-carboxamide] | – | – | 1 to 10
16 | COc1ccc(CNC(=O)c2nc3n(c(=O)c2O)CCCC32CCC2)c(OC)c1 [Example 71, N-[(2,4-dimethoxyphenyl)methyl]-7′,8′-dihydro-3′-hydroxy-4′-oxo-spiro[cyclobutane-1,9′(6′H)-[4H]pyrido[1,2-α]pyrimidine]-2′-carboxamide] | – | – | 10 to 100
17 | Cc1nc(C)n(-c2cc(F)ccc2CNC(=O)c2nc3n(c(=O)c2O)CCOC32CCCC2)n1 [Example 130, Spiro[cyclopentane-1,9′(4′H)-pyrimido[2,1-c][1,4]oxazine]-2′-carboxamide, N-[[2-(3,5-dimethyl-1H-1,2,4-triazol-1-yl)-4-fluorophenyl]methyl]-6′,7′-dihydro-3′-hydroxy-4′-oxo-] | – | 1 to 10 | –
18 | COc1ccc(CNC(=O)c2nc3n(c(=O)c2O)CCOC32CCCC2)c(OC)c1 [Example 25, N-[(2,4-dimethoxyphenyl)methyl]-6′,7′-dihydro-3′-hydroxy-4′-oxo-spiro[cyclopentane-1,9′(4′H)-pyrimido[2,1-c][1,4]oxazine]-2′-carboxamide] | – | – | 10 to 100
19 | CN1CCn2c(nc(C(=O)NCc3ccc(F)cc3)c(O)c2=O)C12CCC2 [Example 98, Spiro[cyclobutane-1,9′(6′H)-[4H]pyrazino[1,2-a]pyrimidine]-2′-carboxamide, N-[(4-fluorophenyl)methyl]-7′,8′-dihydro-3′-hydroxy-8′-methyl-4′-oxo-] | – | 1 to 10 | –
20 | O=C(NCCCc1ccc(F)cc1)c1nc2n(c(=O)c1O)CCOC21CCCC1 [Example 31, N-[3-(4-fluorophenyl)propyl]-6′,7′-dihydro-3′-hydroxy-4′-oxo-spiro[cyclopentane-1,9′(4′H)-pyrimido[2,1-c][1,4]oxazine]-2′-carboxamide] | – | – | 10 to 100
21 | O=C(NCc1ccc(F)cc1-n1ccnn1)c1nc2n(c(=O)c1O)CCOC21CCCC1 [Example 113, Spiro[cyclopentane-1,9′(4′H)-pyrimido[2,1-c][1,4]oxazine]-2′-carboxamide, N-[[4-fluoro-2-(1H-1,2,3-triazol-1-yl)phenyl]methyl]-6′,7′-dihydro-3′-hydroxy-4′-oxo-] | – | 1 to 10 | –
22 | O=C(NCc1ccccc1N1CCCCS1(=O)=O)c1nc2n(c(=O)c1O)CCOC21CCOCC1 [Example 43, N-[[2-(tetrahydro-1,1-dioxido-2H-1,2-thiazin-2-yl)phenyl]methyl]-2,3,5,6,6′,7′-hexahydro-3′-hydroxy-4′-oxo-spiro[4H-pyran-4,9′(4′H)-pyrimido[2,1-c][1,4]oxazine]-2′-carboxamide] | – | – | 10 to 100
23 | Cc1ncnn1-c1cc(F)ccc1CNC(=O)c1nc2n(c(=O)c1O)CCN(C)C21CCC1 [Example 100, Spiro[cyclobutane-1,9′(6′H)-[4H]pyrazino[1,2-a]pyrimidine]-2′-carboxamide, N-[[4-fluoro-2-(5-methyl-1H-1,2,4-triazol-1-yl)phenyl]methyl]-7′,8′-dihydro-3′-hydroxy-8′-methyl-4′-oxo-] | – | 10 to 100 | –
24 | O=C(NCc1ccc(F)cc1-n1nccn1)c1nc2n(c(=O)c1O)CCCC21CCCC1 [Example 6, N-[[4-fluoro-2-(2H-1,2,3-triazol-2-yl)phenyl]methyl]-7′,8′-dihydro-3′-hydroxy-4′-oxo-spiro[cyclopentane-1,9′(6′H)-[4H]pyrido[1,2-α]pyrimidine]-2′-carboxamide] | – | – | 1 to 10
25 | O=C(NCc1ccc(F)cc1)c1nc2n(c(=O)c1O)CCOC21CCNCC1 [Example 88, N-[(4-fluorophenyl)methyl]-6′,7′-dihydro-3′-hydroxy-4′-oxo-spiro[piperidine-4,9′(4′H)-pyrimido[2,1-c][1,4]oxazine]-2′-carboxamide] | – | – | 10 to 100
26 | Cc1cnnn1-c1cc(F)ccc1CNC(=O)c1nc2n(c(=O)c1O)CCOC21CCC1 [Example 104, Spiro[cyclobutane-1,9′(4′H)-pyrimido[2,1-c][1,4]oxazine]-2′-carboxamide, N-[[4-fluoro-2-(5-methyl-1H-1,2,3-triazol-1-yl)phenyl]methyl]-6′,7′-dihydro-3′-hydroxy-4′-oxo-] | – | 1 to 10 | –
